Here are results for four compounds from patent US4801606A (priority 1987, dated 1989).

Converted amounts (≈) assume the structure as drawn. Read-outs that look alike come from different tables or passages of the source.

For data set [1] the following is noted: as described in British patent specification Nos. 1,078,049 and 932,875; cited from earlier work.
The subject of data set [2] is Candida albicans. The data set is described as follows: microbe, parasite or virus in culture.
Data set [3] has as its system CV-1 cells.

In the case of `C=C1CC(OC)(C(O)C(=O)NC(OC)C2CC(O)C(C)(C)C(CC(COC)OC)O2)OC(C)C1C` (stereo not shown) [Pederin], the antimitotic activity entry in data set [1] is given as “antimitotic activity”.
With `C=C1CC(OC)(C(O)C(=O)NC2OCOC3C2OC(CC(O)CCC/C=C/C=C/C=C/C(=O)NC(CCCNC(=N)N)C(=O)OC)C(C)(C)C3OC)OC(C)C1C` (stereo not shown) [Methyl ester (2), Methyl ester of onnamide A], the MIC in data set [2] was 5 µg/mL (≈ 6.19 µM).
In the case of `C=C1CC(OC)(C(O)C(=O)NC2OCOC3C2OC(CC(O)CCC/C=C/C=C/C=C/C(=O)NC(CCCNC(=N)N)C(=O)O)C(C)(C)C3OC)OC(C)C1C` (stereo not shown) [Onnamide A (1), onnamide A], the “VSV CYT” value in data set [3] (0.2 ug/well), in data set [3] (2 ug/well) and in data set [3] (20 ug/well) was 0 LS each time. Besides, the MIC in data set [2] was 50 µg/mL (≈ 63 µM).
On to `C=C1CC(OC)(C(O)C(=O)NC2OCOC3C2OC(CC(O)CCC/C=C/C=C/C=C/C(=O)NC(CCCNc2nc(C)cc(C)n2)C(=O)O)C(C)(C)C3OC)OC(C)C1C` (stereo not shown) [Pyrimidine derivative (3)], for which the MIC in data set [2] stood at 50 µg/mL (≈ 58.3 µM).
